Laboratory results reported in PubChem BioAssay AID1963981 (Molecular Pharmacology Branch, DTP, NCI, 2024).

System: 354836-022-R-J1-PDC multicell spheroid viability
Experiment: Anticancer human tumor 354836-022-R-J1-PDC patient-derived head and neck squamous cell carcinoma cell line growth inhibition [PI3K]
Details: for IC50: curve of first compound; for viability, T/C: stronger effect = lower value
Source text: Combinatorial screen of targeted agents with the PI3K inhibitors inavolisib, alpelisib, duvelisib, and copanlisib in multi-cell type tumor spheroids
A high-throughput screen of multi-cell type tumor spheroids was designed to identify active combinations of targeted small molecules and PI3K pathway inhibitors. Complex spheroids include a stromal component modeled by human endothelial cells (HUVEC) and fibroblasts modeled by human mesenchymal stem cells (MSCs). The concentration ranges selected for each drug and investigational agent were based upon clinically achievable concentrations if the clinical Cmax of the agent was known.
Compounds. The drugs and investigational agents: inavolisib (NSC800729), alpelisib (NSC765974), duvelisib (NSC772469), copanlisib (NSC816437), ipatasertib (NSC767898), afuresertib (NSC778305), talazoparib (NSC767125), sapanisertib (NSC764658), selumetinib (NSC741078), tovorafenib (DAY101, NSC766906), vemurafenib (NSC761431), ravoxertinib (NSC781343), sotorasib (NSC818433), MRTX1133 (NSC 836407), abemaciclib (NSC 768073), palbociclib (NSC758247), venetoclax (NSC 766270), SY5609 (NSC837396), enzalutamide (NSC755605), and darolutamide (NSC825331), were obtained from the National Cancer Institute (NCI) Developmental Therapeutics Program Chemical Repository. The FDA-approved anticancer drug set is available from the NCI Developmental Therapeutics Program. […] The stock solutions were prepared in dimethyl sulfoxide (DMSO, Sigma-Aldrich, St. Louis, MO, cat. D2650) at 800-fold the tested concentration and stored at -70 degrees C prior to their use. All drugs and investigational agents were tested over a range starting from a high concentration at or near the clinical Cmax and decreasing in half-log increments. If the clinical Cmax for an agent had not been determined, the highest concentration tested was 10 microM.
Cell Culture. All cells were maintained in an incubator at 37 degrees C and 5% CO2 with 95% humidity. The PDC lines were cultured according to standard operating procedures established by the NCI PDMR (https://pdmr.cancer.gov/sops/default.htm). All PDCs were thawed and cultured in Matrigel-coated flasks prepared with a working solution of 1X Ham's F-12 nutrient mix, without supplementation (Invitrogen, Waltham, MA, cat. 11765054), 100 U/mL penicillin-streptomycin (Invitrogen, cat. 15140122), and 2.5% Matrigel (Corning Inc., Corning, NY, cat. 354248) for the first three passages. The 354836-022-R-J1-PDC, 475296-252-R-J1-PDC, and 997726-040-R-J2-PDC lines were cultured in 6A media, which includes advanced DMEM/F-12 (Thermo Fisher Scientific, cat. 12634028), 10 mM HEPES (Thermo Fisher Scientific, cat. 15630080), 1X GlutaMAX supplement (Thermo Fisher Scientific, cat. 35050061), 0.1 mg/mL primocin (InvivoGen, San Diego, CA, cat. ant-pm-2), 10% defined fetal bovine serum, heat inactivated (HyClone Laboratories Inc., Logan, UT, cat. SH30070.03HI), 50% L-WRN conditioned media (ATCC, cat. CRL-3276), 1.25 mM N-Acetyl-L-cysteine (Sigma-Aldrich, cat. A9165), 10 mM nicotinamide (Sigma-Aldrich, cat. N0636), 1X B-27 supplement (Thermo Fisher Scientific, cat. 17504044), 1X N-2 supplement (Thermo Fisher Scientific, cat. 17502048), and 10 microM Y-27632 dihydrochloride (Tocris Bioscience, Bristol, United Kingdom, cat. 1254). The 624824-186-R-J2-PDC line was cultured in 6C/Colon 1B media, which includes all 6A media components plus 50 ng/mL human EGF recombinant protein (Thermo Fisher Scientific, cat. PHG0311). […]

[1] = second compound 0.00316 µM, first compound 0.0316 µM
[2] = second compound 0.00316 µM, first compound 0.1 µM
[3] = second compound 0.01 µM, first compound 0.0316 µM
[4] = second compound 0.01 µM, first compound 0.1 µM
[5] = second compound 0.0316 µM, first compound 0.0316 µM
[6] = second compound 0.0316 µM, first compound 0.1 µM
[7] = second compound 0.1 µM, first compound 0.0316 µM
[8] = second compound 0.1 µM, first compound 0.1 µM
[9] = second compound 0.316 µM, first compound 0.0316 µM
[10] = second compound 0.316 µM, first compound 0.1 µM
[11] = second compound 1 µM, first compound 0.0316 µM
[12] = second compound 1 µM, first compound 0.1 µM
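Also: spheroids exposed to agents for seven days before the viability read.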

With CC(C)n1nc(-c2ccc3oc(N)nc3c2)c2c(N)ncnc21 + CC(Nc1ccc2c(c1)OCCn1cc(N3C(=O)OCC3C(F)F)nc1-2)C(N)=O the IC50 (second compound 0.00316 µM) was 13.9 nM, the IC50 (second compound 0.01 µM) was 11.5 nM and the IC50 (second compound 0.0316 µM) was 7.62 nM. The IC50 (second compound 0.1 µM) was 10.6 nM, the IC50 (second compound 0.316 µM) was 5.01 nM and the IC50 (second compound 1 µM) was 1.86 nM. The viability, T/C (second compound 0.00316 µM, first compound 0.000316 µM) was 99.9%, the viability, T/C (second compound 0.00316 µM, first compound 0.001 µM) was 77% and the viability, T/C (second compound 0.00316 µM, first compound 0.00316 µM) was 80.6%. The viability, T/C (second compound 0.00316 µM, first compound 0.01 µM) was 53.9%, the viability, T/C [1] was 35.2% and the viability, T/C [2] was 12.7%. The viability, T/C (second compound 0.01 µM, first compound 0.000316 µM) was 104%, the viability, T/C (second compound 0.01 µM, first compound 0.001 µM) was 76% and the viability, T/C (second compound 0.01 µM, first compound 0.00316 µM) was 74.5%. For the same compound, the viability, T/C (second compound 0.01 µM, first compound 0.01 µM) was 51.3%, the viability, T/C [3] was 37.8% and the viability, T/C [4] was 13.1%. For the same compound, the viability, T/C (second compound 0.0316 µM, first compound 0.000316 µM) was 90.2%, the viability, T/C (second compound 0.0316 µM, first compound 0.001 µM) was 78.8% and the viability, T/C (second compound 0.0316 µM, first compound 0.00316 µM) was 59.2%. The viability, T/C (second compound 0.0316 µM, first compound 0.01 µM) was 50.5%, the viability, T/C [5] was 25.9% and the viability, T/C [6] was 9.5%. It also gave a viability, T/C (second compound 0.1 µM, first compound 0.000316 µM) of 74.1%, a viability, T/C (second compound 0.1 µM, first compound 0.001 µM) of 81.6% and a viability, T/C (second compound 0.1 µM, first compound 0.00316 µM) of 71.3%. For the same compound, the viability, T/C (second compound 0.1 µM, first compound 0.01 µM) was 49.4%, the viability, T/C [7] was 25.4% and the viability, T/C [8] was 6.95%. The viability, T/C (second compound 0.316 µM, first compound 0.000316 µM) was 60.3%, the viability, T/C (second compound 0.316 µM, first compound 0.001 µM) was 75.7% and the viability, T/C (second compound 0.316 µM, first compound 0.00316 µM) was 54%. The viability, T/C (second compound 0.316 µM, first compound 0.01 µM) was 37.7%, the viability, T/C [9] was 22.2% and the viability, T/C [10] was 6.64%. It also gave a viability, T/C (second compound 1 µM, first compound 0.000316 µM) of 57.5%, a viability, T/C (second compound 1 µM, first compound 0.001 µM) of 54.8% and a viability, T/C (second compound 1 µM, first compound 0.00316 µM) of 45.9%. The viability, T/C (second compound 1 µM, first compound 0.01 µM) was 34.8%, the viability, T/C [11] was 19.4% and the viability, T/C [12] was 5.83%.

CCCS(=O)(=O)Nc1ccc(F)c(C(=O)c2c[nH]c3ncc(-c4ccc(Cl)cc4)cc23)c1F + CC(Nc1ccc2c(c1)OCCn1cc(N3C(=O)OCC3C(F)F)nc1-2)C(N)=O was tested, and the IC50 (second compound 0.00316 µM) was 6950 nM, the IC50 (second compound 0.01 µM) was 5960 nM and the IC50 (second compound 0.0316 µM) was 6550 nM. It also gave an IC50 (second compound 0.1 µM) of 5520 nM, an IC50 (second compound 0.316 µM) of 4220 nM and an IC50 (second compound 1 µM) of 3900 nM. The viability, T/C [1] was 103%, the viability, T/C [2] was 131% and the viability, T/C (second compound 0.00316 µM, first compound 0.316 µM) was 107%. The viability, T/C (second compound 0.00316 µM, first compound 1 µM) was 92.7%, the viability, T/C (second compound 0.00316 µM, first compound 3.16 µM) was 90.5% and the viability, T/C (second compound 0.00316 µM, first compound 10 µM) was 32.7%. It also gave a viability, T/C [3] of 106%, a viability, T/C [4] of 93.2% and a viability, T/C (second compound 0.01 µM, first compound 0.316 µM) of 117%. The viability, T/C (second compound 0.01 µM, first compound 1 µM) was 90.5%, the viability, T/C (second compound 0.01 µM, first compound 3.16 µM) was 78.5% and the viability, T/C (second compound 0.01 µM, first compound 10 µM) was 27.5%. The viability, T/C [5] was 95.6%, the viability, T/C [6] was 111% and the viability, T/C (second compound 0.0316 µM, first compound 0.316 µM) was 95.2%. It also gave a viability, T/C (second compound 0.0316 µM, first compound 1 µM) of 105%, a viability, T/C (second compound 0.0316 µM, first compound 3.16 µM) of 93% and a viability, T/C (second compound 0.0316 µM, first compound 10 µM) of 24.8%. For the same compound, the viability, T/C [7] was 85.8%, the viability, T/C [8] was 73.5% and the viability, T/C (second compound 0.1 µM, first compound 0.316 µM) was 81.8%. The viability, T/C (second compound 0.1 µM, first compound 1 µM) was 86.3%, the viability, T/C (second compound 0.1 µM, first compound 3.16 µM) was 79.4% and the viability, T/C (second compound 0.1 µM, first compound 10 µM) was 18.6%. It also gave a viability, T/C [9] of 69.6%, a viability, T/C [10] of 68.2% and a viability, T/C (second compound 0.316 µM, first compound 0.316 µM) of 78.4%. The viability, T/C (second compound 0.316 µM, first compound 1 µM) was 84.5%, the viability, T/C (second compound 0.316 µM, first compound 3.16 µM) was 61.8% and the viability, T/C (second compound 0.316 µM, first compound 10 µM) was 15.1%. The viability, T/C [11] was 54%, the viability, T/C [12] was 54.1% and the viability, T/C (second compound 1 µM, first compound 0.316 µM) was 66.1%. The viability, T/C (second compound 1 µM, first compound 1 µM) was 55.5%, the viability, T/C (second compound 1 µM, first compound 3.16 µM) was 63.4% and the viability, T/C (second compound 1 µM, first compound 10 µM) was 11.1%.
